Laboratory results reported in US20150038435A1, “N-TERMINALLY MODIFIED OLIGOPEPTIDES AND USES THEREOF” (Novo Nordisk A/S, priority 2012, published 2015).
*: point of attachment. Lauroyl = CCCCCCCCCCCC(=O)*

How the values were obtained:
Chymotrypsin = test: Inhibition of enzymatic degradation of a model GLP-1 (FRET substrate) by chymotrypsin; type: biochemical; details: compound 0.1 mM, buffer containing 8% DMSO
In short: (§1)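 Initial-rate slopes of fluorescence rise (320 nm ex, 405 nm em), fitted over the linear early phase and averaged from duplicates, were plotted against inhibitor concentration and fitted logistically to give EC50. Reactions ran at 37° C in Dulbecco's PBS, with MCA/DNP GLP-1 FRET substrate added as 10 μl of 100 μM stock.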

Trypsin = test: Inhibition of enzymatic degradation of a model GLP-1 (FRET substrate) by trypsin; type: biochemical; details: compound 0.1 mM, buffer containing 8% DMSO
In short: as §1

[1] = Hydrophobicity: retention time during reverse phase HPLC; type: physicochemical; details: Acquity CSH C18; pH 7.2 buffer/CH3CN gradient; 40° C.
Excerpt: The retention time (RT) during reverse phase HPLC was taken as a measure of hydrophobicity of an N-terminally modified peptide or oligopeptide of the invention, where the connection is: The longer the RT, the more hydrophobic N-terminally modified peptide or oligopeptide. The following running conditions were applied during HPLC analysis:
Buffer B: 70% (v/v) aq. CH3CN

N-dodecanoyl-Ala-Asp-Pro-Tyr-OH (Lauroyl-ADPY-OH; SMILES CCCCCCCCCCCC(=O)N[C@@H](C)C(=O)N[C@@H](CC(=O)O)C(=O)N1CCC[C@H]1C(=O)N[C@@H](Cc1ccc(O)cc1)C(=O)O) [Example 75]
Slope of the initial increase in fluorescence obtained during incubation with 0.001 mg/ml Chymotrypsin (Chymotrypsin): 1.77
Slope of the initial increase in fluorescence obtained during incubation with 0.001 mg/ml Trypsin (Trypsin): 1.81
RT (retention time during reverse phase HPLC as a measure of hydrophobicity) [1]: 4.2 min

N-dodecanoyl-Ala-Gln-Pro-Tyr-OH (Lauroyl-AQPY-OH; SMILES CCCCCCCCCCCC(=O)N[C@@H](C)C(=O)N[C@@H](CCC(N)=O)C(=O)N1CCC[C@H]1C(=O)N[C@@H](Cc1ccc(O)cc1)C(=O)O) [Example 76]
Slope of the initial increase in fluorescence obtained during incubation with 0.001 mg/ml Chymotrypsin (Chymotrypsin): 0.85
Slope of the initial increase in fluorescence obtained during incubation with 0.001 mg/ml Trypsin (Trypsin): 2.22
RT (retention time during reverse phase HPLC as a measure of hydrophobicity) [1]: 5.26 min

N-dodecanoyl-Ala-Glu-Pro-Tyr-OH (Lauroyl-AEPY-OH; SMILES CCCCCCCCCCCC(=O)N[C@@H](C)C(=O)N[C@@H](CCC(=O)O)C(=O)N1CCC[C@H]1C(=O)N[C@@H](Cc1ccc(O)cc1)C(=O)O) [Example 77]
Slope of the initial increase in fluorescence obtained during incubation with 0.001 mg/ml Chymotrypsin (Chymotrypsin): 1.56
Slope of the initial increase in fluorescence obtained during incubation with 0.001 mg/ml Trypsin (Trypsin): 1.55
RT (retention time during reverse phase HPLC as a measure of hydrophobicity) [1]: 4.17 min

N-dodecanoyl-Ala-Gly-Pro-Tyr-OH (Lauroyl-AGPY-OH; SMILES CCCCCCCCCCCC(=O)N[C@@H](C)C(=O)NCC(=O)N1CCC[C@H]1C(=O)N[C@@H](Cc1ccc(O)cc1)C(=O)O) [Example 78]
Slope of the initial increase in fluorescence obtained during incubation with 0.001 mg/ml Chymotrypsin (Chymotrypsin): 1.03
Slope of the initial increase in fluorescence obtained during incubation with 0.001 mg/ml Trypsin (Trypsin): 1.87
RT (retention time during reverse phase HPLC as a measure of hydrophobicity) [1]: 5.59 min

N-dodecanoyl-Ala-His-Pro-Tyr-OH (Lauroyl-AHPY-OH; SMILES CCCCCCCCCCCC(=O)N[C@@H](C)C(=O)N[C@@H](Cc1c[nH]cn1)C(=O)N1CCC[C@H]1C(=O)N[C@@H](Cc1ccc(O)cc1)C(=O)O) [Example 79]
Slope of the initial increase in fluorescence obtained during incubation with 0.001 mg/ml Chymotrypsin (Chymotrypsin): 0.51
Slope of the initial increase in fluorescence obtained during incubation with 0.001 mg/ml Trypsin (Trypsin): 1.93
RT (retention time during reverse phase HPLC as a measure of hydrophobicity) [1]: 5.29 min

N-dodecanoyl-Ala-Ile-Pro-Tyr-OH (Lauroyl-AIPY-OH; SMILES CCCCCCCCCCCC(=O)N[C@@H](C)C(=O)N[C@H](C(=O)N1CCC[C@H]1C(=O)N[C@@H](Cc1ccc(O)cc1)C(=O)O)[C@@H](C)CC) [Example 80]
Slope of the initial increase in fluorescence obtained during incubation with 0.001 mg/ml Chymotrypsin (Chymotrypsin): 0.10
Slope of the initial increase in fluorescence obtained during incubation with 0.001 mg/ml Trypsin (Trypsin): 1.83
RT (retention time during reverse phase HPLC as a measure of hydrophobicity) [1]: 7.24 min

N-dodecanoyl-Ala-Leu-Pro-Tyr-OH (Lauroyl-ALPY-OH; SMILES CCCCCCCCCCCC(=O)N[C@@H](C)C(=O)N[C@@H](CC(C)C)C(=O)N1CCC[C@H]1C(=O)N[C@@H](Cc1ccc(O)cc1)C(=O)O) [Example 81]
Slope of the initial increase in fluorescence obtained during incubation with 0.001 mg/ml Chymotrypsin (Chymotrypsin): 0.40
Slope of the initial increase in fluorescence obtained during incubation with 0.001 mg/ml Trypsin (Trypsin): 1.90
RT (retention time during reverse phase HPLC as a measure of hydrophobicity) [1]: 7.38 min

N-dodecanoyl-Ala-Lys-Pro-Tyr-OH (Lauroyl-AKPY-OH; SMILES CCCCCCCCCCCC(=O)N[C@@H](C)C(=O)N[C@@H](CCCCN)C(=O)N1CCC[C@H]1C(=O)N[C@@H](Cc1ccc(O)cc1)C(=O)O) [Example 82]
Slope of the initial increase in fluorescence obtained during incubation with 0.001 mg/ml Chymotrypsin (Chymotrypsin): 0.24
Slope of the initial increase in fluorescence obtained during incubation with 0.001 mg/ml Trypsin (Trypsin): 1.50
RT (retention time during reverse phase HPLC as a measure of hydrophobicity) [1]: 5.07 min

N-dodecanoyl-Ala-Met-Pro-Tyr-OH (Lauroyl-AMPY-OH; SMILES CCCCCCCCCCCC(=O)N[C@@H](C)C(=O)N[C@@H](CCSC)C(=O)N1CCC[C@H]1C(=O)N[C@@H](Cc1ccc(O)cc1)C(=O)O) [Example 83]
Slope of the initial increase in fluorescence obtained during incubation with 0.001 mg/ml Chymotrypsin (Chymotrypsin): 0.32
Slope of the initial increase in fluorescence obtained during incubation with 0.001 mg/ml Trypsin (Trypsin): 1.64
RT (retention time during reverse phase HPLC as a measure of hydrophobicity) [1]: 6.88 min

N-dodecanoyl-Ala-Phe-Pro-Tyr-OH (Lauroyl-AFPY-OH; SMILES CCCCCCCCCCCC(=O)N[C@@H](C)C(=O)N[C@@H](Cc1ccccc1)C(=O)N1CCC[C@H]1C(=O)N[C@@H](Cc1ccc(O)cc1)C(=O)O) [Example 84]
Slope of the initial increase in fluorescence obtained during incubation with 0.001 mg/ml Chymotrypsin (Chymotrypsin): 0.14
Slope of the initial increase in fluorescence obtained during incubation with 0.001 mg/ml Trypsin (Trypsin): 1.43
RT (retention time during reverse phase HPLC as a measure of hydrophobicity) [1]: 7.77 min

N-dodecanoyl-Ala-Pro-Pro-Tyr-OH (Lauroyl-APPY-OH; SMILES CCCCCCCCCCCC(=O)N[C@@H](C)C(=O)N1CCC[C@H]1C(=O)N1CCC[C@H]1C(=O)N[C@@H](Cc1ccc(O)cc1)C(=O)O) [Example 85]
Slope of the initial increase in fluorescence obtained during incubation with 0.001 mg/ml Chymotrypsin (Chymotrypsin): 1.81
Slope of the initial increase in fluorescence obtained during incubation with 0.001 mg/ml Trypsin (Trypsin): 1.92
RT (retention time during reverse phase HPLC as a measure of hydrophobicity) [1]: 6.1 min

N-dodecanoyl-Ala-Ser-Pro-Tyr-OH (Lauroyl-ASPY-OH; SMILES CCCCCCCCCCCC(=O)N[C@@H](C)C(=O)N[C@@H](CO)C(=O)N1CCC[C@H]1C(=O)N[C@@H](Cc1ccc(O)cc1)C(=O)O) [Example 86]
Slope of the initial increase in fluorescence obtained during incubation with 0.001 mg/ml Chymotrypsin (Chymotrypsin): 0.33
Slope of the initial increase in fluorescence obtained during incubation with 0.001 mg/ml Trypsin (Trypsin): 1.89
RT (retention time during reverse phase HPLC as a measure of hydrophobicity) [1]: 5.64 min

N-dodecanoyl-Ala-Thr-Pro-Tyr-OH (Lauroyl-ATPY-OH; SMILES CCCCCCCCCCCC(=O)N[C@@H](C)C(=O)N[C@H](C(=O)N1CCC[C@H]1C(=O)N[C@@H](Cc1ccc(O)cc1)C(=O)O)[C@@H](C)O) [Example 87]
Slope of the initial increase in fluorescence obtained during incubation with 0.001 mg/ml Chymotrypsin (Chymotrypsin): 0.48
Slope of the initial increase in fluorescence obtained during incubation with 0.001 mg/ml Trypsin (Trypsin): 1.91
RT (retention time during reverse phase HPLC as a measure of hydrophobicity) [1]: 5.76 min

N-dodecanoyl-Ala-Trp-Pro-Tyr-OH (Lauroyl-AWPY-OH; SMILES CCCCCCCCCCCC(=O)N[C@@H](C)C(=O)N[C@@H](Cc1c[nH]c2ccccc12)C(=O)N1CCC[C@H]1C(=O)N[C@@H](Cc1ccc(O)cc1)C(=O)O) [Example 88]
Slope of the initial increase in fluorescence obtained during incubation with 0.001 mg/ml Chymotrypsin (Chymotrypsin): 0.11
Slope of the initial increase in fluorescence obtained during incubation with 0.001 mg/ml Trypsin (Trypsin): 0.80
RT (retention time during reverse phase HPLC as a measure of hydrophobicity) [1]: 7.88 min

N-dodecanoyl-Ala-Tyr-Pro-Tyr-OH (Lauroyl-AYPY-OH; SMILES CCCCCCCCCCCC(=O)N[C@@H](C)C(=O)N[C@@H](Cc1ccc(O)cc1)C(=O)N1CCC[C@H]1C(=O)N[C@@H](Cc1ccc(O)cc1)C(=O)O) [Example 89]
Slope of the initial increase in fluorescence obtained during incubation with 0.001 mg/ml Chymotrypsin (Chymotrypsin): 0.80
Slope of the initial increase in fluorescence obtained during incubation with 0.001 mg/ml Trypsin (Trypsin): 1.86
RT (retention time during reverse phase HPLC as a measure of hydrophobicity) [1]: 6.23 min

N-dodecanoyl-Ala-Val-Pro-Tyr-OH (Lauroyl-AVPY-OH; SMILES CCCCCCCCCCCC(=O)N[C@@H](C)C(=O)N[C@H](C(=O)N1CCC[C@H]1C(=O)N[C@@H](Cc1ccc(O)cc1)C(=O)O)C(C)C) [Example 90]
Slope of the initial increase in fluorescence obtained during incubation with 0.001 mg/ml Chymotrypsin (Chymotrypsin): 0.35
Slope of the initial increase in fluorescence obtained during incubation with 0.001 mg/ml Trypsin (Trypsin): 1.25
RT (retention time during reverse phase HPLC as a measure of hydrophobicity) [1]: 6.6 min

N-dodecanoyl-Ala-Val-Tyr-OH [Example 112]
Slope of the initial increase in fluorescence obtained during incubation with 0.001 mg/ml Chymotrypsin (Chymotrypsin): 1.44
Slope of the initial increase in fluorescence obtained during incubation with 0.001 mg/ml Trypsin (Trypsin): 2.35
RT (retention time during reverse phase HPLC as a measure of hydrophobicity) [1]: 6.6 min

N-dodecanoyl-Arg-Ala-Ala-Pro-Tyr-OH [Example 91]
Slope of the initial increase in fluorescence obtained during incubation with 0.001 mg/ml Chymotrypsin (Chymotrypsin): 0.00
Slope of the initial increase in fluorescence obtained during incubation with 0.001 mg/ml Trypsin (Trypsin): 1.06
RT (retention time during reverse phase HPLC as a measure of hydrophobicity) [1]: 4.63 min

N-dodecanoyl-Arg-Ala-Pro-Tyr-OH (Lauroyl-RAPY-OH; SMILES CCCCCCCCCCCC(=O)N[C@@H](CCCNC(=N)N)C(=O)N[C@@H](C)C(=O)N1CCC[C@H]1C(=O)N[C@@H](Cc1ccc(O)cc1)C(=O)O) [Example 92]
Slope of the initial increase in fluorescence obtained during incubation with 0.001 mg/ml Chymotrypsin (Chymotrypsin): 0.23
Slope of the initial increase in fluorescence obtained during incubation with 0.001 mg/ml Trypsin (Trypsin): 1.44
RT (retention time during reverse phase HPLC as a measure of hydrophobicity) [1]: 4.84 min

N-dodecanoyl-Arg-Pro-Tyr-OH [Example 113]
Slope of the initial increase in fluorescence obtained during incubation with 0.001 mg/ml Chymotrypsin (Chymotrypsin): 0.18
Slope of the initial increase in fluorescence obtained during incubation with 0.001 mg/ml Trypsin (Trypsin): 2.00
RT (retention time during reverse phase HPLC as a measure of hydrophobicity) [1]: 5.29 min

N-dodecanoyl-Asn-Ala-Ala-Pro-Tyr-OH [Example 93]
Slope of the initial increase in fluorescence obtained during incubation with 0.001 mg/ml Chymotrypsin (Chymotrypsin): 0.14
Slope of the initial increase in fluorescence obtained during incubation with 0.001 mg/ml Trypsin (Trypsin): 1.90
RT (retention time during reverse phase HPLC as a measure of hydrophobicity) [1]: 4.84 min
